Reference: PMC7821181, “MS Binding Assays for Glycine Transporter 2 (GlyT2) Employing Org25543 as Reporter Ligand” (Chemmedchem, 2020)
Like-named read-outs stand apart in the source and are kept apart here.

Assays:
hGlyT2 = biological target: T1, hGlyT2 (Homo sapiens, UniProt Q9Y345); experiment: GlyT2 MS Binding Assays: saturation experiments with Org25543; conditions: mean±SEM, n=3
T1 construct: host or cells: HEK293 cells stably expressing hGlyT2; crude membrane fractions
T1 sequence (Q9Y345 1-797): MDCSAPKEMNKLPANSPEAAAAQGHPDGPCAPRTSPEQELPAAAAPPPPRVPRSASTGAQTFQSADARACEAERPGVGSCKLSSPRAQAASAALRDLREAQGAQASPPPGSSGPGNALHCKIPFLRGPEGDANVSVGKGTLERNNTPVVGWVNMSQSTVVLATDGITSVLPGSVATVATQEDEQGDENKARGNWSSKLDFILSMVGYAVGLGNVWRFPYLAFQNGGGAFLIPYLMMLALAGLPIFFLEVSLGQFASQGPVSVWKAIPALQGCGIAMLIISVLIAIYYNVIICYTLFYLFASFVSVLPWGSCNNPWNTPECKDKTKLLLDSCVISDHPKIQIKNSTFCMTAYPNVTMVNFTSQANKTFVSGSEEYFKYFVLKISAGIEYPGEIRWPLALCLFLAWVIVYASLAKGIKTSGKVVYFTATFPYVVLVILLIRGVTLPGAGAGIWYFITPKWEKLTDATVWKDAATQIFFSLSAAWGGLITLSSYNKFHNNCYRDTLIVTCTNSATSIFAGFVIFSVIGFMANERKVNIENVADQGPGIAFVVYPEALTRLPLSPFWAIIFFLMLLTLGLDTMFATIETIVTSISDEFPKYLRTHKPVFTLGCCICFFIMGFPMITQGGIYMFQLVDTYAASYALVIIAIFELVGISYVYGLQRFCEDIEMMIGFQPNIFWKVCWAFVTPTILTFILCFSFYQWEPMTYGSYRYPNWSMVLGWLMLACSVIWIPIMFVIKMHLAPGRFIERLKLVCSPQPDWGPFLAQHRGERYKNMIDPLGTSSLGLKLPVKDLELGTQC
Experimental: For the further characterization of the binding of Org25543 to GlyT2 saturation experiments were performed. To determine total binding of Org25543 GlyT2 membrane fractions were incubated with the reporter ligand in eight different concentrations (0.4–150 nM) and the samples analyzed after the general workup by LC‐ESI‐MS/MS as described above. Nonspecific binding was obtained from experiments that were completely analogous to the former except that protein subjected to a prior heat‐shock was used. Quantification of Org25543 in total binding samples could be realized down to the lowest nominal concentration level (0.4 nM). For nonspecific binding samples the quantification was possible down to 2 nM nominal marker concentration. For nominal marker concentrations lower than 2 nM the concentrations of Org25543 lay below the LLOQ. As it is generally acknowledged that nonspecific binding is related to nominal marker concentration in a linear fashion, ^[46] data points below this concentration were calculated by extrapolation after linear regression analysis of the data points for nonspecific binding at nominal marker concentrations from 2 to 150 nM.
For preparation of GlyT2 membrane preparations HEK293 cells, stably expressing the hGlyT2 with a confluence ≥90 %, were used (kindly provided by AbbVie (Wiesbaden, Germany)). […]

GlyT2 [1] = conditions: ref 23; read-out: IC50 in [3H]glycine uptake assay; cited from earlier work
GlyT2 [2] = tested on: GlyT2; set-up: method as in PMID 15964938; conditions: ref 27; read-out: IC50 in FLIPR membrane potential assay; cited from earlier work

COc1cc(C(=O)NCC2(N(C)C)CCCC2)cc(OC)c1OCc1ccccc1 [Org25543, N‐[[1‐(dimethylamino)cyclopentyl]methyl]‐3,5‐dimethoxy‐4‐(phenylmethoxy)benzamide]
maximum density of binding sites (B max) (hGlyT2; HEK293 hGlyT2 membrane preparation): 26.15±1.03 pmol (mg protein)^−1
Kd (hGlyT2; Org25543 0.4–150 nM, read-out: K d (saturation experiments)): 7.45 nM
IC50 (GlyT2 [1]): 16 ± 1.9 nM
IC50 (GlyT2 [2]): 31 ± 6 nM
